The values below come from PMC9219098 (ACS Omega, 2022).

Where two headings read alike, the source gives them in different places.

The target of this test is AChE (Homo sapiens, UniProt P22303). Description: In vitro AChE enzyme assay. The test is classed as biochemical.
Chain of AChE (P22303 32-614): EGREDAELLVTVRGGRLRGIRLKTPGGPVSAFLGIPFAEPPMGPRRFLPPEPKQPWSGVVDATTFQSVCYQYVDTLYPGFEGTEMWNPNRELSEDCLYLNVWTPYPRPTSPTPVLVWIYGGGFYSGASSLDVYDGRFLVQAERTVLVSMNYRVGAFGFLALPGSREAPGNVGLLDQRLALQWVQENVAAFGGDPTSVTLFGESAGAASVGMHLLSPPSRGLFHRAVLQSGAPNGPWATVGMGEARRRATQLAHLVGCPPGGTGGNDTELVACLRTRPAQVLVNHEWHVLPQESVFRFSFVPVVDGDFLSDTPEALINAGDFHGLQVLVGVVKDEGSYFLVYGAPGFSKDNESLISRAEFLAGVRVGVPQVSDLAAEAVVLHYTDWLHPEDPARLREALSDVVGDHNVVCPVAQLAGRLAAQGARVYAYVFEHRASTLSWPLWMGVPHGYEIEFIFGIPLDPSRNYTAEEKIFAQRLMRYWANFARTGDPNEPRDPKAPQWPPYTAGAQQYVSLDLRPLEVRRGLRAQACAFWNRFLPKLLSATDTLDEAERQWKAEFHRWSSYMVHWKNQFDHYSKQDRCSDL

Molecule `CC(=O)C=Cc1ccc(C(F)(F)F)cc1` [CHEMBL74630, 1-[4-(trifluoromethyl)phenyl]but-1-en-3-one] had an IC50 of 26.3 ± 2.18 µM.
On the same count and under the same terms, the same measure for `Cc1cccc(C(=O)C(F)(F)F)c1` [CHEMBL86868, 3′-methyl-2,2,2-trifluoroacetophenone, reference compound]: 0.35 ± 0.03 µM; for `O=C(c1ccccc1)C(F)(F)F` [CHEMBL293277, trifluoroacetophenone]: 4.61 ± 0.34 µM.
In turn, `COC(F)(F)C(F)(F)C(F)(F)C(F)(F)F` [CHEMBL500823, methyl nonafluorobutyl ether] gave a half-maximal inhibitory concentration (IC50) (Ellman method, ACTI substrate, mean ± SD, triplicate) of 52.6 ± 4.14 µM.
In turn, `FC(F)(F)C(F)(F)C(F)(F)C(F)(F)C(F)(F)C(F)(F)F` [CHEMBL1200607, perflexane] displayed a concentration for half-maximal inhibition (IC50) of 50.7 ± 3.73 µM.
